This is an account of results in PubChem BioAssay AID1259407 (Chemical Carcinogenesis Research Information System (CCRIS), 2018).

The data set concerns CCRIS mutagenicity, Ames/micronucleus/aberration tests. Nature of the data set: CCRIS mutagenicity studies.
The mark [1] stands for this setting: Test System: AMES SALMONELLA TYPHIMURIUM, Strain/Indicator: TA98, Metabolic Activation: NONE, Method: PREINCUBATION
The mark [2] stands for this setting: Test System: AMES SALMONELLA TYPHIMURIUM, Strain/Indicator: TA100, Metabolic Activation: NONE, Method: PREINCUBATION
[3] abbreviates: Test System: AMES SALMONELLA TYPHIMURIUM, Strain/Indicator: TA98, Metabolic Activation: NONE, Method: STANDARD PLATE.
Where [4] appears, read: Test System: AMES SALMONELLA TYPHIMURIUM, Strain/Indicator: TA100, Metabolic Activation: NONE, Method: STANDARD PLATE.
Setting [5] is: Test System: AMES SALMONELLA TYPHIMURIUM, Strain/Indicator: TA98, Metabolic Activation: RAT, LIVER, S-9, AROCLOR 1254, Method: STANDARD PLATE.
[6] abbreviates: Test System: AMES SALMONELLA TYPHIMURIUM, Strain/Indicator: TA100, Metabolic Activation: RAT, LIVER, S-9, AROCLOR 1254, Method: STANDARD PLATE.
Where [7] appears, read: Test System: AMES SALMONELLA TYPHIMURIUM, Strain/Indicator: TA1538, Metabolic Activation: NONE, Method: STANDARD PLATE.
Where [8] appears, read: Test System: AMES SALMONELLA TYPHIMURIUM, Strain/Indicator: TA1535, Metabolic Activation: NONE, Method: STANDARD PLATE.

Activity calls are given as the source filed them. How the calls were made is not given here.

`CC1CC(OC(=O)c2ccccc2O)CC(C)(C)C1` (stereo not given): the mutagenic call was “inactive; negative” (Test System: AMES SALMONELLA TYPHIMURIUM, Strain/Indicator: TA98, Metabolic Activation: HAMSTER, LIVER, S-9, AROCLOR 1254 (10%), Method: PREINCUBATION); “inactive; negative” under setting [1]; “inactive; negative” (Test System: AMES SALMONELLA TYPHIMURIUM, Strain/Indicator: TA98, Metabolic Activation: RAT, LIVER, S-9, AROCLOR 1254 (10%), Method: PREINCUBATION); “inactive; negative” (Test System: AMES SALMONELLA TYPHIMURIUM, Strain/Indicator: TA100, Metabolic Activation: HAMSTER, LIVER, S-9, AROCLOR 1254 (10%), Method: PREINCUBATION); “inactive; negative” under setting [2]; “inactive; negative” (Test System: AMES SALMONELLA TYPHIMURIUM, Strain/Indicator: TA100, Metabolic Activation: RAT, LIVER, S-9, AROCLOR 1254 (10%), Method: PREINCUBATION). For the same molecule, the mutagenic call runs as follows: (Test System: AMES SALMONELLA TYPHIMURIUM, Strain/Indicator: TA1535, Metabolic Activation: HAMSTER, LIVER, S-9, AROCLOR 1254 (10%), Method: PREINCUBATION) “inactive; negative”; (Test System: AMES SALMONELLA TYPHIMURIUM, Strain/Indicator: TA1535, Metabolic Activation: NONE, Method: PREINCUBATION) “inactive; negative”; (Test System: AMES SALMONELLA TYPHIMURIUM, Strain/Indicator: TA1535, Metabolic Activation: RAT, LIVER, S-9, AROCLOR 1254 (10%), Method: PREINCUBATION) “inactive; negative”; (Test System: AMES SALMONELLA TYPHIMURIUM, Strain/Indicator: TA1537, Metabolic Activation: HAMSTER, LIVER, S-9, AROCLOR 1254 (10%), Method: PREINCUBATION) “inactive; negative”; (Test System: AMES SALMONELLA TYPHIMURIUM, Strain/Indicator: TA1537, Metabolic Activation: NONE, Method: PREINCUBATION) “inactive; negative”; (Test System: AMES SALMONELLA TYPHIMURIUM, Strain/Indicator: TA1537, Metabolic Activation: RAT, LIVER, S-9, AROCLOR 1254 (10%), Method: PREINCUBATION) “inactive; negative”.
With `CC1(C)[C@H](C=C(Cl)Cl)[C@H]1C(=O)OCc1cccc(Oc2ccccc2)c1`, the mutagenic call was “inactive; negative” (Test System: AMES SALMONELLA TYPHIMURIUM, Strain/Indicator: TA97, Metabolic Activation: NONE, Method: STANDARD PLATE); “inactive; negative” (Test System: AMES SALMONELLA TYPHIMURIUM, Strain/Indicator: TA97, Metabolic Activation: RAT, LIVER, S-9, PHENOBARBITONE, Method: STANDARD PLATE); “inactive; negative” under setting [3]; “inactive; negative” (Test System: AMES SALMONELLA TYPHIMURIUM, Strain/Indicator: TA98, Metabolic Activation: RAT, LIVER, S-9, PHENOBARBITONE, Method: STANDARD PLATE); “inactive; negative” under setting [4]; “inactive; negative” (Test System: AMES SALMONELLA TYPHIMURIUM, Strain/Indicator: TA100, Metabolic Activation: RAT, LIVER, S-9, PHENOBARBITONE, Method: STANDARD PLATE). The mutagenic call by setting is: (Test System: AMES SALMONELLA TYPHIMURIUM, Strain/Indicator: TA104, Metabolic Activation: NONE, Method: STANDARD PLATE) “inactive; negative”; (Test System: AMES SALMONELLA TYPHIMURIUM, Strain/Indicator: TA104, Metabolic Activation: RAT, LIVER, S-9, PHENOBARBITONE, Method: STANDARD PLATE) “inactive; negative”.
Turning to `O=[N+]([O-])c1ccc2[nH]ncc2c1`, the mutagenic call (Test System: AMES SALMONELLA TYPHIMURIUM, Strain/Indicator: TA98, Metabolic Activation: HAMSTER, LIVER, S-9, AROCLOR 1254, Method: STANDARD PLATE) was “active; positive”; the mutagenic call under setting [3] was “active; positive”; the mutagenic call under setting [5] was “active; positive”; the mutagenic call (Test System: AMES SALMONELLA TYPHIMURIUM, Strain/Indicator: TA100, Metabolic Activation: HAMSTER, LIVER, S-9, AROCLOR 1254, Method: STANDARD PLATE) is “active; positive”; the mutagenic call under setting [4] was “active; positive”; the mutagenic call under setting [6] is “active; positive”. The mutagenic call (Test System: MOUSE LYMPHOMA, Strain/Indicator: L5178Y (TK+/TK-), Metabolic Activation: NONE, Method: SUSPENSION/PLATE) was “inactive; negative. reevaluation of results: negative” and the mutagenic call (Test System: MOUSE LYMPHOMA, Strain/Indicator: L5178Y (TK+/TK-), Metabolic Activation: RAT, LIVER, S-9, AROCLOR 1254, Method: SUSPENSION/PLATE) was “inactive; negative. reevaluation of results: negative”.
Regarding `CCCCOc1cc(N=Nc2ccccc2)ccc1N=Nc1c(S(=O)(=O)O)cc2ccc(N)cc2c1O`, the mutagenic call by setting is: under setting [3], “inactive; negative”; under setting [5], “active; positive”; under setting [4], “inactive; negative”; under setting [6], “inactive; negative”; under setting [7], “inactive; negative”; (Test System: AMES SALMONELLA TYPHIMURIUM, Strain/Indicator: TA1538, Metabolic Activation: RAT, LIVER, S-9, AROCLOR 1254, Method: STANDARD PLATE) “active; positive”.
As to `CN(Cc1cccc(C(F)(F)F)c1)N=O`, the mutagenic call reads like this: (Test System: AMES SALMONELLA TYPHIMURIUM, Strain/Indicator: TA1535, Metabolic Activation: HAMSTER, LIVER, S-9, AROCLOR 1254, Method: STANDARD PLATE) “active; positive”; under setting [8], “inactive; negative”.
On to `O=C(Nc1ccc(Br)cc1)c1cc(Br)cc(Br)c1O`, for which the mutagenic call under setting [3] was “inactive; negative”; the mutagenic call (Test System: AMES SALMONELLA TYPHIMURIUM, Strain/Indicator: TA98, Metabolic Activation: RAT, LIVER, S-9, KANECHLOR 400, Method: STANDARD PLATE) is “inactive; negative”; the mutagenic call under setting [4] was “inactive; negative”; the mutagenic call (Test System: AMES SALMONELLA TYPHIMURIUM, Strain/Indicator: TA100, Metabolic Activation: RAT, LIVER, S-9, KANECHLOR 400, Method: STANDARD PLATE) is “inactive; negative”; the mutagenic call under setting [8] is “inactive; negative”; the mutagenic call (Test System: AMES SALMONELLA TYPHIMURIUM, Strain/Indicator: TA1535, Metabolic Activation: RAT, LIVER, S-9, KANECHLOR 400, Method: STANDARD PLATE) is “inactive; negative”. Besides, the mutagenic call is “inactive; negative” (Test System: AMES SALMONELLA TYPHIMURIUM, Strain/Indicator: TA1537, Metabolic Activation: NONE, Method: STANDARD PLATE); “inactive; negative” (Test System: AMES SALMONELLA TYPHIMURIUM, Strain/Indicator: TA1537, Metabolic Activation: RAT, LIVER, S-9, KANECHLOR 400, Method: STANDARD PLATE); “inactive; negative” under setting [7]; “inactive; negative” (Test System: AMES SALMONELLA TYPHIMURIUM, Strain/Indicator: TA1538, Metabolic Activation: RAT, LIVER, S-9, KANECHLOR 400, Method: STANDARD PLATE).
As to `O=[N+]([O-])c1ccc2c(c1)C(O)c1ccccc1-2` (stereo not given), the mutagenic call is “active; positive” under setting [1] and “active; positive” (Test System: AMES SALMONELLA TYPHIMURIUM, Strain/Indicator: TA98, Metabolic Activation: S-9, Method: PREINCUBATION).
As for `COC(=O)[C@H](C)Cl`, the mutagenic call under setting [2] was “inactive; negative” and the mutagenic call (Test System: AMES SALMONELLA TYPHIMURIUM, Strain/Indicator: TA100, Metabolic Activation: RAT, LIVER, S-9, PCB, Method: PREINCUBATION) was “inactive; negative”.
